Read-outs that look alike come from different tables or passages of the source.
Legend:
MIA PaCa-2 cells = experiment: Growth inhibition activity on KRAS-G12C mutant cell line (CellTiter-Glo 3D); type: cell-based, human; details: MIA PaCa-2, 3-day culture with compound
In short: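 IC50 (nM) derived from inhibition of luminescence (CellTiter-Glo 3D) relative to compound-free wells. Cells were seeded in U-bottom plates, grown 1 day, then exposed to compound for 3 days at 37 °C with 0.2% final DMSO.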

[1] = target: T1, interaction between GMPPNP-bound recombinant K-Ras4B G12C mutant protein and cRAF RAS-binding domain (cRAF-RBD) (Homo sapiens, UniProt P01116, G12C); experiment: Inhibitory activity on interaction between KRAS G12C and cRAF (Alpha technology)
T1 construct: His-tag (N)
T1 sequence (P01116 with tags, fused parts or gaps isoform P01116-2 G12C): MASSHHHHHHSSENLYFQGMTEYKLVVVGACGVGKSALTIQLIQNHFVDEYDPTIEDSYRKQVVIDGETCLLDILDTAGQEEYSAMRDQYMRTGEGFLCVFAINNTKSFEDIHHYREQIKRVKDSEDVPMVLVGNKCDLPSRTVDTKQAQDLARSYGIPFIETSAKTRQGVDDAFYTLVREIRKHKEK
In short: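 Alpha signal measured 1.5 h after adding cRAF-RBD (aa 50-132) and detection reagents to GMPPNP-bound KRAS G12C (aa 1-169) pretreated 1 h at 25° C with compound (pH 7.5 buffer). 0% inhibition = DMSO, 100% = GDP-loaded KRAS; IC50 by curve fit.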

[2] = Homo sapiens, MIA PaCa-2, 72 h, Table 3-1
[3] = GMPPNP-bound KRAS G12C incubated with compound 25° C. 1 hour, Table 2-1, read-out: IC50
[4] = IC50, GMPPNP-bound KRAS G12C incubated with compound 25° C. 1 hour, Table 2

COCCn1c(COC)[n+]([O-])c2c3c(c(OC)cc21)-c1cccn2c(C(=O)c4cc(F)c(NC(=O)/C=C/CNC5(C)CC5)c(F)c4)cc(c12)CCN3C [Example 243, (E)-2-(3,5-difluoro-4-(4-((1-methylcyclopropyl)-amino)but-2-enamido)-benzoyl)-7-methoxy-9-(2-methoxyethyl)-10-(methoxymethyl)-12-methyl-9,12,13,14-tetra-hydroimidazo[4″,5″:5′,6′]-benzo[1′,2′:2,3]azocino-[4,5,6-hi]indolizine 11-oxide]
IC50 (MIA PaCa-2 cells; [2]): 91.8 nM
IC50 [1, 3]: 83.2 nM

CC1(NC/C=C/C(=O)Nc2c(F)cc(C(=O)c3cc4c5c(cccn35)-c3c(cc(N5CCCC5=O)cc3C(F)(F)F)OCC4)cc2F)COC1 (single isomer, unassigned) [Example 183, (E)-N-(2,6-difluoro-4-(7-(2-oxopyrrolidin-1-yl)-9-(trifluoromethyl)-3,4-dihydrobenzo[2,3]oxocino-[4,5,6-hi]indolizine-1-carbonyl)phenyl)-4-((3-methyloxetan-3-yl)-amino)-but-2-enamide]
IC50 (MIA PaCa-2 cells; [2]): 112 nM
IC50 [1, 3]: 35.2 nM

CO[C@H]1CC[C@H](NC/C=C/C(=O)Nc2c(F)cc(C(=O)c3cn4c5c(cccc35)-c3c(C(F)(F)F)cc5c(nc(C)n5C)c3CCC4)cc2F)CC1 [Example 28, (E)-N-(4-(8,9-dimethyl-6-(trifluoromethyl)-8,11,12,13-tetrahydroimidazo[4″,5″:3′,4′]benzo[1′,2:4,5]azocino[3,2,1-hi]indole-2-carbonyl)-2,6-difluorophenyl)-4-(((1r,4r)-4-methoxycyclohexyl)amino)but-2-enamide]
IC50 (MIA PaCa-2 cells; Homo sapiens, MIA PaCa-2, 72 h, Table 3): 17 nM
IC50 [1, 4]: 53 nM

CC(C)(C)NC/C=C/C(=O)Nc1c(F)cc(C(=O)c2cn3c4c(cccc24)-c2c(Cl)cccc2OCCC3)cc1F (single isomer, unassigned) [Example 2-1, (E)-4-(tert-butylamino)-N-(4-(11-chloro-5,6-dihydro-4H-benzo[8,9][1,5]oxazonino[7,6,5-hi]indole-1-carbonyl)-2,6-difluorophenyl)but-2-enamide]
IC50 (MIA PaCa-2 cells; Table 3): 3100 nM
IC50 [1, 4]: > 6700 nM

CN1CCc2cc(C(=O)c3cc(F)c(NC(=O)/C=C/CN4[C@@H]5CC[C@H]4[C@H](O)C5)c(F)c3)n3cccc(c23)-c2c(C(F)(F)F)cc3c(ncn3C)c21 (single isomer, unassigned) [Example 207]
IC50 (MIA PaCa-2 cells; Table 3-1): 11.2 nM
IC50 [1, 3]: 26.9 nM

CN1CCc2cc(C(=O)c3cc(F)c(NC(=O)/C=C/CNC4(C)CC4)c(F)c3)n3cccc(c23)-c2c(C(F)(F)F)cc3c(ncn3C)c21 [Example 214, (E)-N-(4-(9.12-dimethyl-7-(trifluoromethyl)-9,12,13,14-tetrahydro-imidazo[4″,5″:5′,6′]benzo-[1′,2′:2,3]azocino[4,5,6-hi]indolizine-2-carbonyl)-2,6-difluorophenyl)-4-((1-methylcyclopropyl)amino)-but-2-enamide]
IC50 (MIA PaCa-2 cells; [2]): 1.1 nM
IC50 [1, 3]: 11.5 nM

Cn1cnc2c3c(c(C(F)(F)F)cc21)-c1cccn2c(C(=O)c4cc(F)c(NC(=O)/C=C/CN5CC6COC(C6)C5)c(F)c4)cc(c12)CCO3 (stereo not shown) [Example 228, (E)-4-(6-oxa-3-azabicyclo-[3.2.1]octan-3-yl)-N-(2,6-difluoro-4-(9-methyl-7-(trifluoromethyl)-13,14-dihydro-9H-imidazo-[4″,5″:5′,6′]benzo[1′,2′: 2,3]oxocino[4,5,6-hi]-indolizine-2-carbonyl)-phenyl)but-2-enamide]
IC50 (MIA PaCa-2 cells; [2]): 35.8 nM
IC50 [1, 3]: 32.5 nM

Cn1cnc2c3c(c(C(F)(F)F)cc21)-c1cccn2c(C(=O)c4cc(F)c(NC(=O)/C=C/CN5CC6COCC5C6)c(F)c4)cc(c12)CCO3 (stereo not shown) [Example 230, (E)-4-(3-oxa-6-azabicyclo-[3.2.1]octan-6-yl)-N-(2,6-difluoro-4-(9-methyl-7-(trifluoromethyl)-13,14-dihydro-9H-imidazo-[4″,5″:5′,6′]benzo[1′,2′: 2,3]oxocino[4,5,6-hi]-indolizine-2-carbonyl)-phenyl)but-2-enamide]
IC50 (MIA PaCa-2 cells; [2]): 14.4 nM
IC50 [1, 3]: 20.1 nM

COCc1nc2c3c(c(C(F)F)cc2n1C)-c1cccn2c(C(=O)c4cc(F)c(NC(=O)/C=C/CNC5(C)COC5)c(F)c4)cc(c12)CCN3C [Example 224, (E)-N-(4-(7-(difluoromethyl)-10-(methoxymethyl)-9,12-dimethyl-9,12,13,14-tetrahydroimidazo[4″,5″:5′,6′]benzo[1′,2′:2,3]azocino[4,5,6-hi]indolizine-2-carbonyl)-2,6-difluorophenyl)-4-((3-methyloxetan-3-yl)amino)but-2-enamide]
IC50 (MIA PaCa-2 cells; [2]): 17.8 nM
IC50 [1, 3]: 28.2 nM

COCCn1cnc2c3c(c(C(F)(F)F)cc21)-c1cccn2c(C(=O)c4cc(F)c(NC(=O)C=CCNC5(C)CC5)c(F)c4)cc(c12)CCN3C [Example 215, (E)-N-(2,6-difluoro-4-(9-(2-methoxyethyl)-12-methyl-7-(trifluoromethyl)-9,12,13,14-tetrahydroimidazo[4″,5″:5′,6′]benzo[1′,2′:2,3]azocino[4,5,6-hi]indolizine-2-carbonyl)phenyl)-4-((1-methylcyclopropyl)amino)but-2-enamide]
IC50 (MIA PaCa-2 cells; [2]): 3.4 nM
IC50 [1, 3]: 18.3 nM

COCc1nc2c3c(c(C(F)(F)F)cc2n1C)-c1cccn2c(C(=O)c4cc(F)c(NC(=O)/C=C/CN[C@H]5CCOC5)c(F)c4)cc(c12)C(=O)N(C)C3 [Example 158, (S,E)-N-(2,6-difluoro-4-(10-(methoxymethyl)-9,13-dimethyl-14-oxo-7-(trifluoromethyl)-9,12,13,14-tetrahydroimidazo[4″,5″:3′,4′]benzo[1′,2′:6,7]azocino[5,4,3-hi]indolizine-2-carbonyl)phenyl)-4-((tetrahydrofuran-3-yl)amino)but-2-enamide]
IC50 (MIA PaCa-2 cells; [2]): 95.4 nM
IC50 [1, 3]: 77.6 nM

COc1cc(N2CCCC2=O)cc2c1-c1cccn3c(C(=O)c4cc(F)c(NC(=O)/C=C/CNC5(C)CC5)c(F)c4)cc(c13)CCO2 [Example 210]
IC50 (MIA PaCa-2 cells; [2]): 60.3 nM
IC50 [1, 3]: 38.1 nM

Cc1c2c3c(cccn3c1C(=O)c1cc(F)c(NC(=O)/C=C/CNC3(C)COC3)c(F)c1)-c1c(C(F)(F)F)cc3c(nc(C)n3C)c1OCC2 [Example 58, (E)-N-(2,6-difluoro-4-(1,9,10-trimethyl-7-(tri-fluoromethyl)-13,14-dihydro-9H-imidazo-[4″,5″:5′,6′]benzo[1′,2′: 2,3]oxocino[4,5,6-hi]-indolizine-2-carbonyl)-phenyl)-4-((3-methyl-oxetan-3-yl)amino)but-2-enamide]
IC50 (MIA PaCa-2 cells; [2]): 70.2 nM
IC50 [1, 3]: 77.9 nM

Cn1cnc2c3c(c(C(F)(F)F)cc21)-c1cccn2c(C(=O)c4cc(F)c(NC(=O)/C=C/CN5C[C@@H]6COC[C@H]6C5)c(F)c4)cc(c12)CCO3 (racemic) [Example 248]
IC50 (MIA PaCa-2 cells; [2]): 21.8 nM
IC50 [1, 3]: 18 nM

CO[C@H]1CC[C@H](NC/C=C/C(=O)Nc2c(F)cc(C(=O)c3cc4c5c(cccn35)-c3c(C(F)(F)F)cc5c(nc(C)n5C)c3N(C)CC4)cc2F)CC1 (single isomer, unassigned) [Example 63, (E)-N-(2,6-difluoro-4-(9,10,12-trimethyl-7-(tri-fluoromethyl)-9,12,13,14-tetrahydroimidazo-[4″,5″:5′,6′]benzo[1′,2′: 2,3]azocino[4,5,6-hi]-indolizine-2-carbonyl)-phenyl)-4-(((1r,4r)-4-methoxycyclohexyl)-amino)but-2-enamide]
IC50 (MIA PaCa-2 cells; [2]): 2.48 nM
IC50 [1, 3]: 14.2 nM

CO[C@H]1CC[C@H](NC/C=C/C(=O)Nc2c(F)cc(C(=O)c3cn4c5c(cccc35)-c3c(C(F)(F)F)cc5c(nc(C)n5C)c3OCC4)cc2F)CC1 (single isomer, unassigned) [Example 12-2, (E)-N-(4-(8,9-dimethyl-6-(trifluoromethyl)-12,13-dihydro-8H-imidazo[4″,5″:3′,4′]benzol[1′,2′:7,8][1,4]oxazocino[6,5,4-hi]indole-2-carbonyl)-2,6-difluorophenyl)-4-(((1r,4r)-4-methoxycyclohexyl)amino)but-2-enamide]
IC50 (MIA PaCa-2 cells; Table 3): 1600 nM
IC50 [1, 4]: > 6700 nM

COCc1nc2c3c(c(OC)cc2n1C)-c1cccn2c(C(=O)c4cc(F)c(NC(=O)/C=C/CN[C@H]5CCOC5)c(F)c4)c(C)c(c12)CCN3C (single isomer, unassigned) [Example 231]
IC50 (MIA PaCa-2 cells; [2]): 73.4 nM
IC50 [1, 3]: 101 nM

CO[C@H]1CC[C@H](NC/C=C/C(=O)Nc2c(F)cc(C(=O)c3cn4c5c(cccc35)-c3c(C)cc5c(nc(C)n5C)c3OCCC4)cc2F)CC1 (single isomer, unassigned) [Example 15-2, (E)-N-(2,6-difluoro-4-(6,8,9-trimethyl-13,14-dihydro-8H,12H-imidazo[4″,5″:3′,4′]benzo[1′,2″:8,9][1,5]oxazonino[7,6,5-hi]indole-2-carbonyl)phenyl)-4-(((1r,4r)-4-methoxycyclohexyl)amino)but-2-enamide]
IC50 (MIA PaCa-2 cells; Table 3): 27 nM
IC50 [1, 4]: 35 nM

Cc1cc2c(nc(C)n2C)c2c1-c1cccc3c(C(=O)c4cc(F)c(NC(=O)/C=C/CN[C@H]5CCOC5)c(F)c4)cn(c13)CCN2C (single isomer, unassigned) [Example 90]
IC50 (MIA PaCa-2 cells; [2]): 21.6 nM
IC50 ([1]; IC50, GMPPNP-bound KRAS G12C incubated with compound 25° C. 1 hour, Table 2-1): 17.2 nM

COCCn1c(COC)nc2c3c(c(OC)cc21)-c1cccn2c(C(=O)c4cc(F)c(NC(=O)/C=C/CNC5(C)CC5)c(F)c4)cc(c12)CCN3C (single isomer, unassigned) [Example 244]
IC50 (MIA PaCa-2 cells; [2]): 10 nM
IC50 [1, 3]: 15.5 nM

From US20240262842A1, “SMALL MOLECULE INHIBITORS OF KRAS G12C MUTANT” (Merck Sharp & Dohme LLC, priority 2021, published 2024)
